The values that follow come from ChEMBL document CHEMBL1201862, “PubChem BioAssay data set” (2004).

Structures are written as SMILES. Activity calls are given as the source filed them. A value given as a limit tells only on which side of the number the result lay.

The target in one assay is T1, Protein RecA (Mycobacterium tuberculosis, UniProt P9WHJ3).
T1 sequence (P9WHJ3 whole entry): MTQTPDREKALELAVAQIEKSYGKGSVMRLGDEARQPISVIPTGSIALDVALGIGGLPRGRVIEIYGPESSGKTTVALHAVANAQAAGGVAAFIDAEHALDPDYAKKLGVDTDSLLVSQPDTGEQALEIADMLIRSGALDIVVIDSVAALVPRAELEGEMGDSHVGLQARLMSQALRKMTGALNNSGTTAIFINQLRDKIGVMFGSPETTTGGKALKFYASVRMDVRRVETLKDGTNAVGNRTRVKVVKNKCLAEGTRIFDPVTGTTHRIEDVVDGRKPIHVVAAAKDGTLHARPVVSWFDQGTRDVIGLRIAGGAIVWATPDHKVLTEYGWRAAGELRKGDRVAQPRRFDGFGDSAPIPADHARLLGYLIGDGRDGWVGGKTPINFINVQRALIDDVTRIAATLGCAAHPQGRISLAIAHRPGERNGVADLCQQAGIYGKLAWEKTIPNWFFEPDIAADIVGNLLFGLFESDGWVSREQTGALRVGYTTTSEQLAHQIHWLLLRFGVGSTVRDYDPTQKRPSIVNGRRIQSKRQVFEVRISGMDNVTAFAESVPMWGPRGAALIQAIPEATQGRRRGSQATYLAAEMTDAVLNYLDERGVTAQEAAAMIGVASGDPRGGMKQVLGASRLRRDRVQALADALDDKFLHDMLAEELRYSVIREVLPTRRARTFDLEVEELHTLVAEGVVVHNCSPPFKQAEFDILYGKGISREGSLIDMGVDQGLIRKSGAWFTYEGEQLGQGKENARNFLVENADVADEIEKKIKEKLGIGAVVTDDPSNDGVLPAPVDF
Put plainly: Fluorescence Cell-Free Homogeneous Dose Retest to Identify Inhibitors of RecA-Intein Splicing Activity. [Related pubchem assays (depositor defined):AID2097, AID2223, AID489010, AID492950]. The assay is classed as functional.

Assay [1] addresses T2, Replicative DNA helicase DnaB (Mycobacterium tuberculosis, UniProt P9WMR3).
T2 sequence (P9WMR3 whole entry): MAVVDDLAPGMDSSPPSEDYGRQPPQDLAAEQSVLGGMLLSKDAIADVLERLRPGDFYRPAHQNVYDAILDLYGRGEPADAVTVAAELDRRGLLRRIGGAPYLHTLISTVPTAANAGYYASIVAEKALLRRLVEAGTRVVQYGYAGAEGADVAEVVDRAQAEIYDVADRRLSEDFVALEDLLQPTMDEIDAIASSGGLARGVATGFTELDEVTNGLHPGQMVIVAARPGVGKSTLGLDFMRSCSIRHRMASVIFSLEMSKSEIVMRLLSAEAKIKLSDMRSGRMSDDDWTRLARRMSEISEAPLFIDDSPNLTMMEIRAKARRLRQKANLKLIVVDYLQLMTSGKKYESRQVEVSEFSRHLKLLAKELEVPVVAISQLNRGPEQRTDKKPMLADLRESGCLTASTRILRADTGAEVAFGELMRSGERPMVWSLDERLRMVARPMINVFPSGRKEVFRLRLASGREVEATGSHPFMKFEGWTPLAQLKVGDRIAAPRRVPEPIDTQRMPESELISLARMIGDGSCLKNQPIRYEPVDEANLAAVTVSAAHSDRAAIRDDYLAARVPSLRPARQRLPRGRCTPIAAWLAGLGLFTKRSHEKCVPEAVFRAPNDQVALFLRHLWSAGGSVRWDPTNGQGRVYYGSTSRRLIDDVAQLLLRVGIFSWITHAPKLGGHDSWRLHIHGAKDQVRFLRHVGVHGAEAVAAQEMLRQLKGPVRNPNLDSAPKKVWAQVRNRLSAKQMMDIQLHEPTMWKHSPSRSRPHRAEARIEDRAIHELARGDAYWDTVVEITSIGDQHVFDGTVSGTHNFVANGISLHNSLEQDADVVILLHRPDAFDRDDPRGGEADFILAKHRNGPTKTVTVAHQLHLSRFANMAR
Put plainly: DnaB intein splicing inhibitors, dose response, biochemical, cell-free fluorescence (AID 449749). The assay is classed as functional.

For assay [2], the target named is T3, Endoribonuclease toxin MazF (Escherichia coli K-12, UniProt P0AE70).
T3 sequence (P0AE70 whole entry): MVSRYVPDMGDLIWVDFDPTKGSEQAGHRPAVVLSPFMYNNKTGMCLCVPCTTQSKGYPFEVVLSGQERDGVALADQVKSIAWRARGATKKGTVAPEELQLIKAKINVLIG
Put plainly: SAR analysis of small molecule activators of the MazEF TA System via a fluorescence-based single-stranded RNase assay counterscreen. [Related pubchem assays (depositor defined):AID504720, AID504743]. The assay is classed as functional.

A further assay addresses ORF 73 (Human herpesvirus 8, UniProt O40947). Put plainly: inhibitors of C-LANA binding to LBS DNA, dose response, biochemical, fluorescence polarization, cherry-picked samples (AID 504725).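 Also: fluorescence polarization of a labeled DNA duplex reporting LANA DNA binding; potency is for inhibitors that block LANA binding to the DNA.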 Further details: species or system Human gammaherpesvirus 8. (In fluorescence polarisation assays a small probe gives low polarisation when free and higher when bound to something large.)

Assay [3] can be described thus: growth suppression of beta-catenin-knockout colon cells, dose response, cell-based, HCT116, human colon tumor (AID 1045).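 Also: HCT116 colon tumor cells with beta catenin knocked out; cells exposed to compound for 60 hours.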 It counts as functional.
The nature of assay [4]: Vero E6 cell cytotoxicity, dose response, cytotoxicity control for non-replicating M. tuberculosis project, secondary assay (AID 492998). The assay is classed as functional, VeroE6. To be noted: Vero C1008.
The nature of assay [5]: cytotoxicity toward DRD oncogenic fibroblasts, dose response, cell-based, non-viral oncogenic, luminescence (AID 1934). The assay is classed as functional. The note with it: Homo sapiens.
Assay [6] in a line: Luminescence Cell-Based Dose Response HTS to Identify Inhibitors of 5'UTR Stem-Loop Driven Prion Protein mRNA Translation in H4 Neuroglioblastoma Cells. [Related pubchem assays: 1827 (Project Summary), 1813 (Primary HTS)]. It counts as functional.
Assay [7] concerns the target Ras and Rab interactor 1/Tyrosine-protein kinase ABL1 (Homo sapiens, UniProt P00519+Q13671). The assay is classed as functional.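 Also: biochemical TR-FRET dose-response test measuring inhibition of binding between Rin1 and Abl proteins.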

Sequence of ORF 73 (O40947 whole entry): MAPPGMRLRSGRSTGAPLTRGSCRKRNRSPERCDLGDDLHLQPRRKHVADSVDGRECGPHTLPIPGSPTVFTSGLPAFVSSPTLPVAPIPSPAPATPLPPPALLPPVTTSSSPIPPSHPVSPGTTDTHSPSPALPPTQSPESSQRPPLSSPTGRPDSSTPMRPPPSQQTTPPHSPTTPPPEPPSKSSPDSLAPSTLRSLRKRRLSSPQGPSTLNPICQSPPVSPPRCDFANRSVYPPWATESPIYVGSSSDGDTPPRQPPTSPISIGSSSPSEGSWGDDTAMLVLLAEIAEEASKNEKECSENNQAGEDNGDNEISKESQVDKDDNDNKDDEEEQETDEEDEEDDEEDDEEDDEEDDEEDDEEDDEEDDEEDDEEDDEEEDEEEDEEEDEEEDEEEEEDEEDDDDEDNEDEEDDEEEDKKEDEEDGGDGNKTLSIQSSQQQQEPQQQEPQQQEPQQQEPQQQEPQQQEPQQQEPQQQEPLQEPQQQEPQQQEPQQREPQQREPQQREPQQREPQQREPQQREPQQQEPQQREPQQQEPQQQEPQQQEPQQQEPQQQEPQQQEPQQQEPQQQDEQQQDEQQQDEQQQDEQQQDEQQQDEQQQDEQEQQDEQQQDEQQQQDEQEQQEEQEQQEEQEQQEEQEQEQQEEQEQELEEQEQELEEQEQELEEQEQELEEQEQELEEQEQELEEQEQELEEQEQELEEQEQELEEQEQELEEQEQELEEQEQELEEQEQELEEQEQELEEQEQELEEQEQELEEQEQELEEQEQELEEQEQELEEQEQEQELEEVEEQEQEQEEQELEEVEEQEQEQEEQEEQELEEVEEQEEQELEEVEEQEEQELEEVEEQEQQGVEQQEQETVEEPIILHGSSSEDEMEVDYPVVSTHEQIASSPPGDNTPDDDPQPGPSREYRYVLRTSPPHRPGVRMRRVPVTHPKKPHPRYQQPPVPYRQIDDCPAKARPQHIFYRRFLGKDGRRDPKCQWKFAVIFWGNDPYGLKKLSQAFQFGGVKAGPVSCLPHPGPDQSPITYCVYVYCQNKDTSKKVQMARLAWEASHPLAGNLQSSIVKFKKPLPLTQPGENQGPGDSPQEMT
Sequence of Ras and Rab interactor 1/Tyrosine-protein kinase ABL1 (P00519 whole entry): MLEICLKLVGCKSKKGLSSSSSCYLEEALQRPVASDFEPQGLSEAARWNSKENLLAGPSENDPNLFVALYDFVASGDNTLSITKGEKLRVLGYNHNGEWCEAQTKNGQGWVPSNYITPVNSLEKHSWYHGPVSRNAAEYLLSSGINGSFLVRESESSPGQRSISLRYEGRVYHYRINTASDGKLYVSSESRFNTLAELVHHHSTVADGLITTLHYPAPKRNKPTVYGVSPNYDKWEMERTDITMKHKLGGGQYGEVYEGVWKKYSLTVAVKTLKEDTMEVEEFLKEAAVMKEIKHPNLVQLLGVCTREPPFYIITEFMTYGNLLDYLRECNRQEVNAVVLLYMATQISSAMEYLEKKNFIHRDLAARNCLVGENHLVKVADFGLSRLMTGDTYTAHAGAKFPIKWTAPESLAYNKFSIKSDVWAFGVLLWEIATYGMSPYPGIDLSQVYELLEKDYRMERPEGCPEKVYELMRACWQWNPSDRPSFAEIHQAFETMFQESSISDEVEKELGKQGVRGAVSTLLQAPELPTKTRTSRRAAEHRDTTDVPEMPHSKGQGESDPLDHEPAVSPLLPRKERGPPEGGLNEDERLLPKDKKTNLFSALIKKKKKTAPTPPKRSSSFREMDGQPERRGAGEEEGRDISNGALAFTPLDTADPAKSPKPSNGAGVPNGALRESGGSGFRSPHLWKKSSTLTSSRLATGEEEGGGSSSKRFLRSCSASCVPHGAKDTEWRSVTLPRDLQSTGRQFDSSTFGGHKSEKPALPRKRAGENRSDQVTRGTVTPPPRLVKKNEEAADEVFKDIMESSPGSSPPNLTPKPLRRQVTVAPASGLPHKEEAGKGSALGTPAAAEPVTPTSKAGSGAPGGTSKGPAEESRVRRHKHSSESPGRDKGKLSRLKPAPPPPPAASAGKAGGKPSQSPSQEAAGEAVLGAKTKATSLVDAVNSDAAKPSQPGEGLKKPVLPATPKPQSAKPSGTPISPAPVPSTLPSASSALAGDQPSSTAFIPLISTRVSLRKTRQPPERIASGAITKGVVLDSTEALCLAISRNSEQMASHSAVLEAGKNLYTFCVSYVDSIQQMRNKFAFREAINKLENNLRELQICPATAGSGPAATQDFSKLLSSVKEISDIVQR
Sequence of Ras and Rab interactor 1/Tyrosine-protein kinase ABL1 (Q13671 whole entry): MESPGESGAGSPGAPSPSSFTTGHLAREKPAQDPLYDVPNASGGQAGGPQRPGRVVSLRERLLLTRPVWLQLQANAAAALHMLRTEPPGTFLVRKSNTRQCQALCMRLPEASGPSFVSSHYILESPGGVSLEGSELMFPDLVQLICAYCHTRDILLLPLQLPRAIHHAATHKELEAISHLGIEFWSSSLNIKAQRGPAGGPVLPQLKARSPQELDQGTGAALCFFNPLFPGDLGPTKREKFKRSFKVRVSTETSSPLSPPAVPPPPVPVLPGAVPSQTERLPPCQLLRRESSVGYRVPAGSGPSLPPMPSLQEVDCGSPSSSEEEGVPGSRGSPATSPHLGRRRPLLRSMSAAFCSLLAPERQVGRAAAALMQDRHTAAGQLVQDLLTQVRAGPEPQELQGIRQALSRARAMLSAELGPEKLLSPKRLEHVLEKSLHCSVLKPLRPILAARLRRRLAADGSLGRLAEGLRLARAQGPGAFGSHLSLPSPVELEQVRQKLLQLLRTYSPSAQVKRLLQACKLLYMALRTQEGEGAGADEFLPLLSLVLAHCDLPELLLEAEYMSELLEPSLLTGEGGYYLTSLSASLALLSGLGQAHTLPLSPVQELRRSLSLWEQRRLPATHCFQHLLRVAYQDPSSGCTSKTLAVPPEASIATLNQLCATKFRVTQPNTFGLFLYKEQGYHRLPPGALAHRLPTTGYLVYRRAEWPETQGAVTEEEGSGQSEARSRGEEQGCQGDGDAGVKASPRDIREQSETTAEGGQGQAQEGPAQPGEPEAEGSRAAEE

For `Oc1nc(Nc2ccccc2Cl)cc2ccccc12`, the concentration giving a half-maximal response (EC50) (usually the concentration at which the effect is half-maximal) on Protein RecA was 1990 nM (active). In addition, the AC50 (in general, the concentration giving half of the maximal activity seen) in [1] was 9330 nM (active).
Turning to `O=C1C=C(c2c(O)ccc3ccccc23)c2ccccc2C1=O`, the EC50 in [2] is > 99000 nM (inactive).
With `O=C(CCN1C(=O)/C(=C\c2ccco2)SC1=S)Nc1ccc(C(=O)O)c(O)c1`, the AC50 at ORF 73 is 94600 nM (active).
For the molecule `Cc1nc2c(=O)n(C)c(=O)nc-2n(C)n1`, the EC50 on Protein RecA is 20.9 nM (active); in assay [3], 781 nM (active); in [5] it was 4390 nM (active); in assay [6] it was 251 nM (inconclusive). Besides, in assay [4], the CC50 (in general, the concentration that lowers cell viability or growth by half) was 4510 nM (active). Also, in assay [1], the AC50 was 97.8 nM (active). In assay [7], the IC50 (as a rule, the concentration that inhibits the measured activity by half) was 302 nM (active).
